Measurements from patent US20180207148A1 (priority 2015, published 2018).
Like-named read-outs stand apart in the source and are kept apart here.

How the values were obtained:
[1] = CNS safety pharmacology study in rats; format: in vivo, rat; conditions: Compound A administered alone
[2] = Cardiovascular safety pharmacology in dogs; format: in vivo, dog; conditions: Compound A administered alone
[3] = Paclitaxel pharmacokinetics in rats after single oral dose with Compound A; conditions: rat, in vivo
clinical [4] = conditions: human, in vivo
Protocol: (§1) A 2-part study was conducted in subjects with advanced/metastatic or recurrent gastric cancer. […] A total of 56 subjects enrolled in this study: 10 subjects with advanced malignant tumors in Part 1 and 46 subjects with advanced gastric cancer in Part 2.

[5] = Paclitaxel pharmacokinetics in dogs after single oral dose with Compound A; conditions: dog, in vivo
[6] = for CL/F: po
clinical [7] = conditions: human, in vivo, oral
Description: No premedication was allowed during this treatment sequence.

[8] = dogs; for CL/F: paclitaxel 6 mg/kg with Compound A 3 mg/kg, single oral dose
[9] = human, in vivo
Protocol: as §1

[10] = tested on: transplanted human tumor cell lines; assay: Seven in vivo experiments, human tumor transplant cell lines in mice (overall); parameters: species or system mouse; conditions: paclitaxel administered IP or IV, compared with oral combination
Protocol: In these studies, tumor inhibition rate (IR %) was calculated as ([1-relative tumor growth in treated group/relative tumor growth in control group]×100). Tumor regression was calculated as (Mean Tumor WeightEnd of treatment/Mean tumor WeightBeginning of treatment)×100. Therefore, a value <100% for tumor regression indicates a decrease in tumor weight over the course of the study and a value >100% indicates an increase in tumor weight. Tumor growth delay was calculated as the median number of days to reach two tumor mass doublings.

clinical [11] = conditions: human, in vivo; remark: listed apart in the source
in vivo = conditions: dog, po, 6 mg/kg, paclitaxel 6 mg/kg with Compound A 3 mg/kg, single oral dose; for AUC(0-t): AUClast; for half-life: t1/2, dogs

COc1cc2c(cc1OC)CN(CCc1ccc(-n3nnc(-c4cc(OC)c(OC)cc4NC(=O)c4cc(=O)c5ccccc5o4)n3)cc1)CC2.CS(=O)(=O)O.O [Compound A]
reductions in body temperature [1]: absence | reductions in PR and QRS intervals [2]: absence

CC(=O)O[C@H]1C(=O)[C@@]2(C)[C@H]([C@H](OC(=O)c3ccccc3)[C@]3(O)C[C@H](OC(=O)[C@H](O)[C@@H](NC(=O)c4ccccc4)c4ccccc4)C(C)=C1C3(C)C)[C@]1(OC(C)=O)CO[C@@H]1C[C@@H]2O [Paclitaxel, 5,20-Epoxy-1,2,4,7,10-13-hexahydroxytax-11-en-9-one-4,10-diacetate 2-benzoate 13-ester with (2R,3S)—N-benzoyl-3-phenylisoserine]
AUC(0-t) ([3]; 5 mg/kg): 333 ng·h/mL | Cmax ([3]; 5 mg/kg): 103 ng/mL | Tmax ([3]; 5 mg/kg): 0.6 h | AUC(0-t) ([3]; 10 mg/kg): 1030 ng·h/mL | Cmax ([3]; 10 mg/kg): 356 ng/mL | Tmax ([3]; 10 mg/kg): 0.7 h | AUC(0-t) ([3]; 20 mg/kg): 3010 ng·h/mL | Cmax ([3]; 20 mg/kg): 852 ng/mL | Tmax ([3]; 20 mg/kg): 1.2 h | AUC(0-t) ([3]; 30 mg/kg): 6640 ng·h/mL | Cmax ([3]; 30 mg/kg): 1760 ng/mL | Tmax ([3]; 30 mg/kg): 1.2 h | half-life ([3]; 30 mg/kg): 6 h | AUC(0-t) ([3]; 40 mg/kg): 11100 ng·h/mL | Cmax ([3]; 40 mg/kg): 2490 ng/mL | Tmax ([3]; 40 mg/kg): 1.5 h | half-life ([3]; 40 mg/kg): 5.5 h | AUC(0-t) ([3]; 50 mg/kg): 13100 ng·h/mL | Cmax ([3]; 50 mg/kg): 3070 ng/mL | half-life ([3]; 50 mg/kg): 5.3 h | half-life (clinical [4]; oral): 18.3 to 19.7 h | AUC(0-t) (clinical [4]; oral, AUC0-24, range across dose levels, Day 1): 611 to 894 ng·h/mL | AUC(0-t) (clinical [4]; oral, AUC0-24, range across dose levels, Day 2): 735 to 1080 ng·h/mL | Cmax (clinical [4]; oral, Cmax, range across dose levels, Day 1): 202 to 280 ng/mL | Cmax (clinical [4]; oral, Cmax, range across dose levels, Day 2): 159 to 315 ng/mL | Cmax (clinical [4]; po, 90 mg/m2, Paclitaxel Cmax, Mean (SD), 90 mg/m^2, Day 1, N 2, two consecutive daily oral doses): 202 ng/mL | Cmax (clinical [4]; po, 90 mg/m2, Paclitaxel Cmax, Mean (SD), 90 mg/m^2, Day 2, N 2, two consecutive daily oral doses): 315 ng/mL | Cmax (clinical [4]; po, 120 mg/m2, Paclitaxel Cmax, Mean (SD), 120 mg/m^2, Day 2, N 3, two consecutive daily oral doses): 159 ng/mL | AUC(0-t) (clinical [4]; po, 150 mg/m2): 894 ng·h/mL | Cmax (clinical [4]; po, 150 mg/m2): 251 ng/mL | Cmax (clinical [4]; po, 150 mg/m2, Paclitaxel Cmax, Mean (SD), 150 mg/m^2, Day 2, N 3, two consecutive daily oral doses): 276 ng/mL | AUC(0-t) ([5]; 2 mg/kg): 413 ng·h/mL | Tmax ([5]; 2 mg/kg): 0.5 h | AUC(0-t) ([5]; 4 mg/kg): 1330 ng·h/mL | Tmax ([5]; 4 mg/kg): 0.7 h | AUC(0-t) ([5]; 6 mg/kg): 2120 ng·h/mL | Tmax ([5]; 6 mg/kg): 0.5 h | Mean apparent clearance (CL/F) ([6]; human, in vivo): up to 244.9 L/h | CL/F ([6]; human, in vivo, 60 mg/m2): 178.4 L/h | CL/F ([6]; human, in vivo, 180 mg/m2): 173.4 L/h | CL/F ([6]; human, in vivo, 240 mg/m2): 147.6 L/h | CL/F ([6]; human, in vivo, 360 mg/m2): 228.7 L/h | CL/F ([6]; human, in vivo, 420 mg/m2): 244.9 L/h | MTD ([6]; oral paclitaxel 60 to 420 mg/m^2 on days 1, 8 and 15 of 28-day cycle with Compound A): not reached | overall toxicity profile ([6]; orally administered in combination with Compound A, neutropenia the adverse event associated with discontinuation): consistent with that of paclitaxel | bioavailability (clinical [7]): ~13.4% | AUC, fasted group compared to fed group [8]: ~2 fold | Cmax, fasted group compared to fed group [8]: ~2 fold | CL/F ([8]; Fasted): 4.2 ± 1.2 L/h | CL/F ([8]; Fed): 6.4 ± 1.3 L/h | Overall exposure on Day 2, higher than Day 1 [9]: 20-30% | activity against transplanted human tumor cell lines [10]: generally less active | half-life (clinical [11]): 19.9 to 32.1 h | AUC(0-inf) (clinical [11]; po, 60 mg/m2): 727 ng·h/mL | AUC(0-t) (clinical [11]; po, 60 mg/m2): 584 ng·h/mL | Cmax (clinical [11]; po, 60 mg/m2): 150 ng/mL | MRT inf (clinical [11]; po, 60 mg/m2): 28.6 h | Vd/F (clinical [11]; po, 60 mg/m2): 9130 L | half-life (clinical [11]; po, 60 mg/m2): 32.1 h | AUC(0-inf) (clinical [11]; po, 120 mg/m2): 1840 ng·h/mL | AUC(0-t) (clinical [11]; po, 120 mg/m2): 1610 ng·h/mL | CL renal (clinical [11]; po, 120 mg/m2): 50 mL/min | MRT inf (clinical [11]; po, 120 mg/m2): 17 h | Vd/F (clinical [11]; po, 120 mg/m2): 4040 L | half-life (clinical [11]; po, 120 mg/m2): 22 h | AUC(0-inf) (clinical [11]; po, 180 mg/m2): 1980 ng·h/mL | AUC(0-t) (clinical [11]; po, 180 mg/m2): 1670 ng·h/mL | CL renal (clinical [11]; po, 180 mg/m2): 30 mL/min | Cmax (clinical [11]; po, 180 mg/m2): 432 ng/mL | MRT inf (clinical [11]; po, 180 mg/m2): 21.9 h | Vd/F (clinical [11]; po, 180 mg/m2): 6030 L | half-life (clinical [11]; po, 180 mg/m2): 24.4 h | AUC(0-inf) (clinical [11]; po, 240 mg/m2): 2970 ng·h/mL | AUC(0-t) (clinical [11]; po, 240 mg/m2): 2550 ng·h/mL | CL renal (clinical [11]; po, 240 mg/m2): 40 mL/min | Cmax (clinical [11]; po, 240 mg/m2): 510 ng/mL | MRT inf (clinical [11]; po, 240 mg/m2): 23.4 h | Vd/F (clinical [11]; po, 240 mg/m2): 6010 L | half-life (clinical [11]; po, 240 mg/m2): 25.7 h | AUC(0-inf) (clinical [11]; po, 300 mg/m2): 3480 ng·h/mL | AUC(0-t) (clinical [11]; po, 300 mg/m2): 3140 ng·h/mL | CL renal (clinical [11]; po, 300 mg/m2): 33.3 mL/min | Cmax (clinical [11]; po, 300 mg/m2): 920 ng/mL | MRT inf (clinical [11]; po, 300 mg/m2): 16.2 h | Vd/F (clinical [11]; po, 300 mg/m2): 4930 L | half-life (clinical [11]; po, 300 mg/m2): 21.2 h | AUC(0-inf) (clinical [11]; po, 360 mg/m2): 2850 ng·h/mL | AUC(0-t) (clinical [11]; po, 360 mg/m2): 2510 ng·h/mL | CL renal (clinical [11]; po, 360 mg/m2): 122 mL/min | MRT inf (clinical [11]; po, 360 mg/m2): 18.7 h | Vd/F (clinical [11]; po, 360 mg/m2): 6840 L | half-life (clinical [11]; po, 360 mg/m2): 20.8 h | AUC(0-inf) (clinical [11]; po, 420 mg/m2): 3730 ng·h/mL | AUC(0-t) (clinical [11]; po, 420 mg/m2): 3410 ng·h/mL | CL renal (clinical [11]; po, 420 mg/m2): 48.3 mL/min | MRT inf (clinical [11]; po, 420 mg/m2): 14.7 h | Vd/F (clinical [11]; po, 420 mg/m2): 7180 L | half-life (clinical [11]; po, 420 mg/m2): 19.9 h | AUC(0-t) (in vivo; dogs, Fasted): 1600 ± 416 ng·h/mL | AUC(0-t) (in vivo; dogs, Fed): 849 ± 120 ng·h/mL | Cmax (in vivo; Cmax, dogs, Fed): 299 ± 54.6 ng/mL | Tmax (in vivo; dogs, Fasted): 0.5 h | Tmax (in vivo; dogs, Fed): 0.7 ± 0.2 h | Vd/F (in vivo; dogs, Fasted): 57.9 ± 17.4 L | Vd/F (in vivo; dogs, Fed): 88 ± 19.6 L | half-life (in vivo; Fasted): 9.4 ± 0.3 h | half-life (in vivo; Fed): 9.9 ± 2.7 h
